tested on: Wnt pathway (TCF-dependent transcription in HEK293 luciferase reporter cell line with ER-DSH construct); assay: Cellular assay for Wnt pathway activity (luciferase reporter); type: cell-based; conditions: Homo sapiens; Wnt pathway inhibition, HEK293 luciferase reporter cells (ER-DSH, TCF promoter), 24 hours incubation, estrogen-induced
Outline: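 Compounds (30 μM down to 1 nM) were incubated 24 h on cells induced for TCF-dependent transcription with estrogen. Luciferase activity was read by luminescence, normalized to untreated vehicle control, and fitted for IC50.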

First: CC(=O)N(C)CCN(C)c1cncc(Oc2ccc(-c3ccc(N)nc3)c(F)c2F)n1 [Compound 280, N-[2-({6-[4-(6-Amino-pyridin-3-yl)-2,3-difluoro-phenoxy]-pyrazin-2-yl}-methyl-amino)-ethyl]-N-methyl-acetamide]
Second: CC(=O)N(C)CCNc1cncc(Oc2ccc(-c3cccnc3)c(F)c2F)n1 [Compound 302, N-{2-[6-(2,3-Difluoro-4-pyridin-3-yl-phenoxy)-pyrazin-2-ylamino]-ethyl}-N-methyl-acetamide]
The IC50 of the first is lower: under 200 nM for the first, 1000 to 10000 nM for the second. The first is the more potent here.

CN(CCN(C)S(C)(=O)=O)c1cncc(Oc2ccc(F)cc2)n1 [Compound 281, N-(2-{[6-(4-Fluoro-phenoxy)-pyrazin-2-yl]-methyl-amino}-ethyl)-N-methyl-methane-sulfonamide] and CN(CCN(C)c1cncc(Oc2ccc(F)cc2)n1)C(=O)CN [Compound 284, 2-Amino-N-(2-{[6-(4-fluoro-phenoxy)-pyrazin-2-yl]-methyl-amino}-ethyl)-N-methyl-acetamide] fall in the same range of IC50: 1000 to 10000 nM for the first, 1000 to 10000 nM for the second.

Compared with CC(=O)N(C)CCCc1cncc(Oc2ccc(-c3ccc(N)cn3)cc2F)n1 [Compound 282, N-(3-{6-[4-(5-Amino-pyridin-2-yl)-2-fluoro-phenoxy]-pyrazin-2-yl}-propyl)-N-methyl-acetamide], CC(=O)N(C)CCCc1cncc(Oc2ccc(-c3ccc(C)cn3)cc2)c1 [Compound 312, N-Methyl-N-(3-{5-[4-(5-methyl-pyridin-2-yl)-phenoxy]-pyridin-3-yl}-propyl)-acetamide] is higher in IC50: under 200 nM for the first, 1000 to 10000 nM for the second. The first is the more potent here.

First: CN(CCC1(O)CCCC1)c1cncc(Oc2ccc(F)cc2)n1 [Compound 283, 1-(2-{[6-(4-Fluoro-phenoxy)-pyrazin-2-yl]-methyl-amino}-ethyl)-cyclopentanol]
Second: CN(CCN(C)c1cncc(Oc2ccc(F)cc2)n1)C(=O)CO [Compound 286, N-(2-{[6-(4-Fluoro-phenoxy)-pyrazin-2-yl]-methyl-amino}-ethyl)-2-hydroxy-N-methyl-acetamide]
The IC50 of the first is higher: 200 to 1000 nM for the first, under 200 nM for the second. The second is the more potent here.

CN(CCN(C)c1cncc(Oc2ccc(F)cc2)n1)C(=O)CN(C)C(=O)OC(C)(C)C [Compound 285, {[(2-{[6-(4-Fluoro-phenoxy)-pyrazin-2-yl]-methyl-amino}-ethyl)-methyl-carbamoyl]-methyl}-methyl-carbamic acid tert-butyl ester] and CC(N)C(=O)N(C)CCN(C)c1cncc(Oc2ccc(F)cc2)n1 (stereo not drawn) [Compound 308, 2-Amino-N-(2-{[6-(4-fluoro-phenoxy)-pyrazin-2-yl]-methyl-amino}-ethyl)-N-methyl-propionamide] fall in the same range of IC50: 1000 to 10000 nM for the first, 1000 to 10000 nM for the second.

CC(=O)N(C)CCN(C)c1cncc(Oc2ccc(-c3ccc(N4CCN(C(=O)CCCCCNC(=O)CCCCC5SCC6NC(=O)NC65)CC4)nc3)cc2)n1 (stereo not drawn) [Compound 287, 5-(2-Oxo-hexahydro-thieno[3,4-d]imidazol-6-yl)-pentanoic acid [6-(4-{5-[4-(6-{[2-(acetyl-methyl-amino)-ethyl]-methyl-amino}-pyrazin-2-yloxy)-phenyl]-pyridin-2-yl}-piperazin-1-yl)-6-oxo-hexyl]-amide] and CC(=O)N(C)CCN(C)c1cncc(Oc2ccc(-c3ccc(CN)nc3)cc2)n1 [Compound 309] cannot be ordered by IC50: under 200 nM for the first, under 200 nM for the second.

First: CC(=O)N(C)CCNc1cncc(Oc2ccc(-c3ccnc(C#N)c3)cc2)n1 [Compound 288, N-(2-{6-[4-(2-Cyano-pyridin-4-yl)-phenoxy]-pyrazin-2-ylamino}-ethyl)-N-methyl-acetamide]
Second: CC(=O)N(C)CCNc1cncc(Oc2ccc(-c3ccc(CO)cn3)cc2)n1 [Compound 293, N-(2-{6-[4-(5-Hydroxy-methyl-pyridin-2-yl)-phenoxy]-pyrazin-2-ylamino}-ethyl)-N-methyl-acetamide]
The IC50 of the first is higher: 1000 to 10000 nM for the first, 200 to 1000 nM for the second.

CC(=O)NCC(C)Nc1cncc(Oc2ccc(F)cc2)n1 (stereo not drawn) [Compound 289, N-{2-[6-(4-Fluoro-phenoxy)-pyrazin-2-ylamino]-propyl}-acetamide] and C=CC(=O)N(C)CCN(C)c1cncc(Oc2ccc(F)cc2)n1 [Compound 290, N-(2-{[6-(4-Fluoro-phenoxy)-pyrazin-2-yl]-methyl-amino}-ethyl)-N-methyl-acrylamide] fall in the same range of IC50: 1000 to 10000 nM for the first, 1000 to 10000 nM for the second.

Nc1cnc(-c2ccc(Oc3cncc(NCCN4CCCCC4=O)n3)cc2)cn1 [Compound 291, 1-(2-{6-[4-(5-Amino-pyrazin-2-yl)-phenoxy]-pyrazin-2-ylamino}-ethyl)-piperidin-2-one] and O=C1CCCCN1CCNc1cncc(Oc2ccc(-c3ccc(CO)nc3)cc2)n1 [Compound 292, 1-(2-{6-[4-(6-Hydroxy-methyl-pyridin-3-yl)-phenoxy]-pyrazin-2-ylamino}-ethyl)-piperidin-2-one] cannot be ordered by IC50: under 200 nM for the first, under 200 nM for the second.

First: CC(=O)N(C)CCNc1cncc(Oc2ccc(-c3ccc(S(N)(=O)=O)cn3)cc2)n1 [Compound 294, N-Methyl-N-(2-{6-[4-(5-sulfamoyl-pyridin-2-yl)-phenoxy]-pyrazin-2-ylamino}-ethyl)-acetamide]
Second: Cc1ccc(-c2ccc(Oc3cncc(NCCC(N)=O)n3)cc2)nc1 [Compound 298, 3-{6-[4-(5-Methyl-pyridin-2-yl)-phenoxy]-pyrazin-2-ylamino}-propionamide]
The IC50 of the first is higher: 1000 to 10000 nM for the first, 200 to 1000 nM for the second. The second is the more potent here.

Compared with O=C1CCCCN1CCNc1cncc(Oc2ccc(-c3ccc(N4CCOCC4)nc3)cc2)n1 [Compound 295, 1-(2-{6-[4-(6-Morpholin-4-yl-pyridin-3-yl)-phenoxy]-pyrazin-2-ylamino}-ethyl)-piperidin-2-one], O=C1CCCCN1CCNc1cncc(Oc2ccc(N3CCOCC3)cc2)n1 [Compound 307, 1-{2-[6-(4-Morpholin-4-yl-phenoxy)-pyrazin-2-ylamino]-ethyl}-piperidin-2-one] is higher in IC50: under 200 nM for the first, 200 to 1000 nM for the second.

First: N#Cc1cnccc1-c1ccc(Oc2cncc(NCCN3CCCCC3=O)n2)cc1 [Compound 296, 4-(4-{6-[2-(2-Oxo-piperidin-1-yl)-ethylamino]-pyrazin-2-yloxy}-phenyl)-nicotinonitrile]
Second: NC(=O)CCNc1cncc(Oc2ccc(-c3ccc(CO)nc3)cc2)n1 [Compound 299, 3-{6-[4-(6-Hydroxy-methyl-pyridin-3-yl)-phenoxy]-pyrazin-2-ylamino}-propionamide]
The IC50 of the first is lower: 200 to 1000 nM for the first, 1000 to 10000 nM for the second. The first is the more potent here.

CS(=O)(=O)c1cncc(-c2ccc(Oc3cncc(NCCC(N)=O)n3)cc2)c1 [Compound 300, 3-{6-[4-(5-Methane-sulfonyl-pyridin-3-yl)-phenoxy]-pyrazin-2-ylamino}-propionamide] and NC(=O)CCNc1cncc(Oc2ccc(-c3cnc(N)cn3)cc2)n1 [Compound 301, 3-{6-[4-(5-Amino-pyrazin-2-yl)-phenoxy]-pyrazin-2-ylamino}-propionamide] cannot be ordered by IC50: at least 10000 nM for the first, 1000 to 10000 nM for the second.

O=C1[C@@H]2CC[C@@H](C2)N1CCCc1cncc(Oc2ccc(F)cc2)n1 [Compound 303, (1S,4R)-2-{3-[6-(4-Fluoro-phenoxy)-pyrazin-2-yl]-propyl}-2-aza-bicyclo[2.2.1]heptan-3-one] and CC(=O)N(C)CCCc1cncc(Oc2ccc(F)cc2)c1 [Compound 304, N-{3-[5-(4-Fluoro-phenoxy)-pyridin-3-yl]-propyl}-N-methyl-acetamide] fall in the same range of IC50: 200 to 1000 nM for the first, 200 to 1000 nM for the second.

CC(=O)N(C)CCCc1cnc(N)c(Oc2ccc(F)cc2)c1 [Compound 306, N-{3-[6-Amino-5-(4-fluoro-phenoxy)-pyridin-3-yl]-propyl}-N-methyl-acetamide] and CC(=O)N(C)CCN(C)c1cncc(Oc2ccc(F)cc2)c1 [Compound 310, N-(2-{[5-(4-Fluoro-phenoxy)-pyridin-3-yl]-methyl-amino}-ethyl)-N-methyl-acetamide] fall in the same range of IC50: 1000 to 10000 nM for the first, 1000 to 10000 nM for the second.

Compared with CN(C=O)CCNc1cncc(Oc2ccc(-c3cccc(N4CCN(C)CC4)n3)cc2)n1 [Compound 311, N-Methyl-N-[2-(6-{4-[6-(4-methyl-piperazin-1-yl)-pyridin-2-yl]-phenoxy}-pyrazin-2-ylamino)-ethyl]-formamide], CC(=O)N(C)CCCc1cncc(Oc2ccc(-c3cccc(N4CCN(C)CC4)n3)cc2)c1 [Compound 316, N-Methyl-N-[3-(5-{4-[6-(4-methyl-piperazin-1-yl)-pyridin-2-yl]-phenoxy}-pyridin-3-yl)-propyl]-acetamide] is higher in IC50: 200 to 1000 nM for the first, 1000 to 10000 nM for the second. The first is the more potent here.

CC(=O)N(C)CCN(C)c1cncc(Oc2ccc(-c3cnn(C)c3)cc2)n1 [Compound 313, N-Methyl-N-[2-(methyl-{6-[4-(1-methyl-1H-pyrazol-4-yl)-phenoxy]-pyrazin-2-yl}-amino)-ethyl]-acetamide] and CC(=O)N(C)CCN(C)c1cncc(Oc2ccc3c(cnn3C)c2)n1 [Compound 317, N-Methyl-N-(2-{methyl-[6-(1-methyl-1H-indazol-5-yloxy)-pyrazin-2-yl]-amino}-ethyl)-acetamide] cannot be ordered by IC50: under 200 nM for the first, under 200 nM for the second.

Compared with CC(=O)N(C)CCCc1cc(Oc2ccc(-c3cccc(N4CCN(C)CC4)n3)cc2)c[n+]([O-])c1 [Compound 314, N-Methyl-N-[3-(5-{4-[6-(4-methyl-piperazin-1-yl)-pyridin-2-yl]-phenoxy}-1-oxy-pyridin-3-yl)-propyl]-acetamide], CC(=O)N(C)CCCc1cncc(Oc2ccc(-c3ccc(N4CCOCC4)nc3)cc2)c1 [Compound 318, N-Methyl-N-(3-{5-[4-(6-morpholin-4-yl-pyridin-3-yl)-phenoxy]-pyridin-3-yl}-propyl)-acetamide] is lower in IC50: 1000 to 10000 nM for the first, 200 to 1000 nM for the second.

Compared with CC(=O)N(C)CCNc1cncc(Oc2ccc(F)cc2)c1 [Compound 315, N-{2-[5-(4-Fluoro-phenoxy)-pyridin-3-ylamino]-ethyl}-N-methyl-acetamide], CC(=O)N(C)CCN(C)c1cncc(Oc2ccc(-c3ccc(C)cn3)cc2)c1 [Compound 320, N-Methyl-N-[2-(methyl-{5-[4-(5-methyl-pyridin-2-yl)-phenoxy]-pyridin-3-yl}-amino)-ethyl]-acetamide] is lower in IC50: at least 10000 nM for the first, 200 to 1000 nM for the second. The second is the more potent here.

In the case of CC(=O)N(C)CCNc1cncc(Cc2ccccc2)n1 [Compound 319, N-[2-(6-Benzyl-pyrazin-2-ylamino)-ethyl]-N-methyl-acetamide], the IC50 is reported as 200 to 1000 nM.

— patent US9493444B2 (Merck Patent GmbH, priority 2012, dated 2016)
